Results published in patent US20240116897A1, “BENZOTHIAZOLE AND BENZIMIDAZOLE DERIVATIVES, PHARMACEUTICALLY ACCEPTABLE SALT THEREOF, PREPARATION METHOD THEREFOR, AND PHARMACEUTICAL COMPOSITION COMPRISING SAME AS ACTIVE INGREDIENT” (KOREA RESEARCH INSTITUTE OF CHEMICAL TECHNOLOGY, priority 2021, published 2024).

Target: T1, SIRT7 protein (Homo sapiens, UniProt Q9NRC8)
T1 construct: purchased SignalChem S41-30H
T1 sequence (Q9NRC8 1-400): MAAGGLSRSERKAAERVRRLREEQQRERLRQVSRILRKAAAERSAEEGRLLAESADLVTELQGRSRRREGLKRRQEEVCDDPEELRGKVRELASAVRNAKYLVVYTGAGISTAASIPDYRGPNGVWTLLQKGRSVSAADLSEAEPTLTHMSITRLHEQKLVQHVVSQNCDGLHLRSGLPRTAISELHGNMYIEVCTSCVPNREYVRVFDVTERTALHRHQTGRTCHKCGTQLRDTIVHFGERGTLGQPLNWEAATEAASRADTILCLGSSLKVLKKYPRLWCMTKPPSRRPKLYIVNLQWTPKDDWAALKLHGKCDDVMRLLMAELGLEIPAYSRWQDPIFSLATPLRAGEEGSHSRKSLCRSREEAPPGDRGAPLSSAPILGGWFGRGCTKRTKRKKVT
Assay: SIRT Glo assay, inhibitory activity against Sirt7
Type: biochemical
Details: 10 μM compound
Experimental: Promega's Cat. No. 6450 SIRT Glo assay kit was used, and as the target SIRT7 protein, No. S41-30H protein of SignalChem's Cat. was used. Prepare the compound by diluting it in SIRT Glo buffer in advance to a concentration twice as thick as the final concentration. For the positive control group of white 384 well plate (Greiner Bioone, white, small volume, Cat. No. 874075), and for compound group, dilute sirt7 protein in SIRT Glo buffer and dispense by 5 μL to contain 20 ng per well. In the background control group, 10 μL of SIRT Glo buffer is dispensed.
After adding 5 μL of SIRT Glo buffer to the positive control group, and 5 μL of the diluted compound to the compound group, react for 30 minutes. After making the substrate provided in the SIRT Glo assay, adding 10 μL each, and reacting for 1 hour, the luciferase activity is measured with a microplate reader (Molecular Device, spectramax i3).
Subtract the luciferase level of the background control group in all wells. The % inhibition of the compound was used to obtain the compound's rate of inhibitory activity against sirt7 in the following:
% inhibition=100−(compound group/positive control group)×100.

Row | inhibition at 10 µM [%] | SMILES
1 | 100 | CCNC(=O)N1CCC(=Cc2ccc(C(=O)Nc3nc4ccccc4s3)c(F)c2)CC1 [Compound 1-88, 4-(4-(benzo[d]thiazol-2-ylcarbamoyl)-3-fluorobenzylidene)-N-ethylpiperidine-1-carboxamide]
2 | 44 | CC(C)(C)OC(=O)N1CCC(=Cc2ccc(C(=O)Nc3nc4ccccc4s3)c(Cl)c2)CC1 [Compound 1-103, tert-butyl 4-(4-(benzo[d]thiazol-2-ylcarbamoyl)-3-chlorobenzylidene)piperidine-1-carboxylate]
3 | 34 | O=C(Nc1nc2ccccc2s1)c1ccc(C=C2CCN(C(=O)Nc3ccc(C(F)(F)F)cc3)CC2)cc1Cl [Compound 1-107, 4-(4-(benzo[d]thiazol-2-ylcarbamoyl)-3-chlorobenzylidene)-N-(4-(trifluoromethyl)phenyl)piperidine-1-carboxamide]
4 | 84 | O=C(Nc1nc2ccccc2s1)c1ccc(CN2CCN(C(=O)Nc3ccc4c(c3)CCC4)CC2)cc1 [Compound 1-46, 4-(4-(benzo[d]thiazol-2-ylcarbamoyl)benzyl)-N-(2,3-dihydro-1H-inden-5-yl)piperazine-1-carboxamide]
5 | 7 | O=C(Nc1nc2ccccc2s1)c1ccc(CN2CCN(C(=O)c3ccccc3)CC2)cc1 [Compound 1-60, N-(benzo[d]thiazol-2-yl)-4-((4-benzoylpiperazin-1-yl)methyl)benzamide]
6 | 53 | CCNC(=O)N1CCC(Cc2ccc(C(=O)Nc3nc4ccccc4s3)c(C(F)(F)F)c2)CC1 [Compound 1-84, 4-(4-(benzo[d]thiazol-2-ylcarbamoyl)-3-(trifluoromethyl)benzyl)-N-ethylpiperidine-1-carboxamide]
7 | 100 | O=C(Nc1nc2ccccc2s1)c1ccc(C=C2CCN(C(=O)Nc3ccccc3)CC2)cc1 [Compound 1-68, 4-(4-(benzo[d]thiazol-2-ylcarbamoyl)benzylidene)-N-phenylpiperidine-1-carboxamide]
8 | 96 | CCNC(=O)N1CCC(=Cc2cc(F)c(C(=O)Nc3nc4ccccc4s3)c(F)c2)CC1 [Compound 1-100, 4-(4-(benzo[d]thiazol-2-ylcarbamoyl)-3,5-difluorobenzylidene)-N-ethylpiperidine-1-carboxamide]
9 | 92 | O=C(Nc1nc2ccccc2s1)c1ccc(C=C2CCNCC2)cc1Cl [Compound 1-104, N-(benzo[d]thiazol-2-yl)-2-chloro-4-(piperidin-4-ylidenemethyl)benzamide]

The remaining lines, values behind:

Row | SMILES | inhibition at 10 µM [%]
10 | CCc1cnc(Oc2cccc(C(=O)Nc3nc4ccccc4s3)c2)nc1 [Compound 1-20, N-(benzo[d]thiazol-2-yl)-3-((5-ethylpyrimidin-2-yl)oxy)benzamide] | 63
11 | CC(C)(C)OC(=O)N1CCN(Cc2ccc(C(=O)Nc3nc4ccccc4s3)cc2)CC1 [Compound 1-26, Tert-Butyl 4-(4-(benzo[d]thiazol-2-ylcarbamoyl)benzyl)piperazine-1-carboxylate] | 40
12 | Cc1ccc(Oc2ccc(C(=O)Nc3nc4ccccc4[nH]3)cc2)nn1 [Compound 1-4, N-(1H-benzo[d]imidazol-2-yl)-4-((6-methylpyridazin-3-yl)oxy)benzamide] | 90
13 | O=C(Nc1nc2ccccc2s1)c1ccc(CN2CCN(C(=O)Nc3ccccc3C(F)(F)F)CC2)cc1 [Compound 1-43, 4-(4-(benzo[d]thiazol-2-ylcarbamoyl)benzyl)-N-(2-(trifluoromethyl)phenyl)piperazine-1-carboxamide] | 79
14 | O=C(Nc1nc2ccccc2s1)c1ccc(CN2CCN(C(=O)Nc3ccccc3F)CC2)cc1 [Compound 1-45, 4-(4-(benzo[d]thiazol-2-ylcarbamoyl)benzyl)-N-(2-fluorophenyl)piperazine-1-carboxamide] | 96
15 | Cc1ccc(Oc2ccc(C(=O)Nc3nc4cccnc4s3)cc2)nn1 [Compound 1-16, 4-((6-methylpyridazin-3-yl)oxy)-N-(thiazolo[5,4-b]pyridin-2-yl)benzamide] | 87
